Source: PMC12518634, “The noncanonical function of liver-type phosphofructokinase potentiates the efficacy of HDAC inhibitors in cancer” (Signal Transduction and Targeted Therapy, 2025)
Where two headings read alike, the source gives them in different places.

What was measured:
[1] = tested on: 1405R3; assay: High-throughput drug screen, CellTiter-Glo viability, 72 h; assay type: cell-based, human; parameters: AUC: scale not given here; details: 1405R3 DSRT analysis; for AUC: area under the dose-response curve; for MIN: lower asymptote of fitted dose-response curve; for EC50: 72 h, fitted dose-response curve, Min.Conc.tested 1, Max.Conc.tested 10000, read-out: EC50; for SLOPE: slope of fitted dose-response curve
Procedure: (§1) The cells were seeded and incubated with a gradient of concentrations of drugs for 72 h, after which the cell viability was assessed (Supplementary Fig. 1a). The drug library primarily comprises epigenetic drugs, including HDAC inhibitors, DNA methyltransferase inhibitors, and histone demethylase inhibitors, as well as conventional chemotherapies and kinase inhibitors (Supplementary Fig. 1b and Supplementary Table 1). […] To identify novel therapeutics against CCA, we conducted a high-throughput screen employing PerkinElmer’s integrated robotic Explorer G3 workstations. […] Following dilution to five specified concentrations, drugs were dispensed into 96-well plates in the sequence detailed in Supplementary Fig. 1a. The CCA cell lines were subsequently plated in 384-well plates at a density of 3000 cells per well in a 20 μL total volume. After a 24-h incubation, the compounds were added to the wells and incubated for 72 h. We then quantified cell viability via the CellTiter-Glo luminescent assay according to the manufacturer’s protocol. Signal detection was carried out on a Synergy2 plate reader operated by Gen5 software (BioTek). For data processing, the raw luminescence data were processed through the Breeze pipeline for curve fitting, yielding quality control metrics (e.g., Z-factors) and drug response parameters (AUC and DSS), as adapted from previous work.[54] Drug responses were evaluated on the basis of the drug sensitivity score (DSS), and a cutoff of ≥10 was used to define efficacy. The complete drug library and screening dataset are available in Supplementary Tables 1-3.
(§2) Supplementary Fig. 1. A high-throughput drug screen to identify drugs targeting CCA. a Schematic representation of the drug screening protocol. […] Each drug was tested at five different concentrations (10, 1, 0.1, 0.01, and 0.001 μM), and each treatment was replicated twice. b Classification of drugs used for screening.

[2] = tested on: 783C-6; assay: as above; assay type: cell-based, human; parameters: AUC: scale not given here; details: for AUC: area under the dose-response curve; for EC50: 72 h, read-out: EC50
Procedure: as §1, §2

[3] = Homo sapiens, CellTiter-Glo viability, GI50
[4] = 783C-6 cells, DSS of DSRT analysis
[5] = 783C-6 cells, minimum of dose-response curve
[6] = 783C-6 DSRT analysis, DSS calculated from the dose-response curve
[7] = 783C-6 DSRT analysis, MIN of the fitted dose-response curve
[8] = 783C-6 cells, slope of fitted dose-response curve
[9] = 783C-6 DSRT analysis, CellTiter-Glo viability, fitted dose-response curve, Min.Conc.tested 1, Max.Conc.tested 10000
[10] = 783C-6 DSRT analysis, slope of the fitted dose-response curve

Structure (SMILES)	AUC [1]	DSS ([1]; drug sensitivity score)	MIN [1]	EC50 [1, 3] [nM]	DSS [2, 4]	AUC ([2]; 783C-6 cells)	MIN [2, 5]	EC50 ([2]; Homo sapiens) [nM]	DSS ([1]; DSS)	DSS [2, 6]	MIN [2, 7]	AUC ([2]; 783C-6 DSRT analysis)	EC50 ([1]; CellTiter-Glo viability, GI50) [nM]	SLOPE [1]	EC50 ([2]; 783C-6 cells, DSRT analysis, CellTiter-Glo viability, concentrations tested 1 to 10000 (unit inferred), GI50) [nM]	SLOPE [2, 8]	EC50 ([1]; CellTiter-Glo) [nM]	EC50 [2, 9] [nM]	SLOPE [2, 10]	EC50 ([1]; Homo sapiens, CellTiter-Glo) [nM]
CCCCc1nc2cc(/C=C/C(=O)NO)ccc2n1CCN(CC)CC [Pracinostat]	75.5	8.7	3.4	1660	7.3	64.3	3.1	2190	–	–	–	–	–	–	–	–	–	–	–	–
O=C(CCCCCCC(=O)Nc1ccc([C@H]2O[C@@H](CSc3nc(-c4ccccc4)c(-c4ccccc4)o3)C[C@@H](c3ccc(CO)cc3)O2)cc1)NO [Tubacin]	41.9	0	73.1	–	0	7.2	76.2	–	–	–	–	–	–	–	–	–	–	–	–	–
CCN(CCCOc1ccc2c(Nc3cc(CC(=O)Nc4cccc(F)c4)n[nH]3)ncnc2c1)CCOP(=O)(O)O [Barasertib]	0.1	–	100	–	–	–	–	–	0	0	91.7	11.5	–	–	–	–	–	–	–	–
CCCCNNC(=O)c1ccc(Br)cc1 [UF010]	21.1	2	67.1	–	2.1	22.5	74.9	–	–	–	–	–	2320	-2.5	1280	-2.4	–	–	–	–
C=CC(=O)Nc1cc2c(Nc3ccc(F)c(Cl)c3)ncnc2cc1OCCCN1CCOCC1 [Canertinib]	33.5	–	78.5	–	–	–	–	–	0	0	75.6	7.4	–	–	–	–	–	–	–	–
N.N.[Cl][Pt][Cl] [Cisplatin]	22.7	–	71.3	–	–	–	–	–	2	2	65.1	20.4	–	-1.8	–	–	1650	2630	-2.5	–
N#Cc1c(-c2ccccc2)cc(-c2cc(Br)ccc2O)[nH]c1=O [TCS PIM-1 1]	2.3	0	96.8	–	0	5.4	92.2	–	–	–	–	–	–	-0.4	–	-0.4	–	–	–	–
Cc1sc2c(c1C)C(c1ccc(Cl)cc1)=N[C@@H](CC(=O)NCCCCCCCCNC(=O)COc1cccc3c1C(=O)N(C1CCC(=O)NC1=O)C3=O)c1nnc(C)n1-2 (stereo partly drawn) [DBET6]	8.2	–	80	–	–	–	–	–	0.4	6.9	29.1	59.2	–	-2.5	–	–	–	1470	-2.5	–
CN(C)Cc1ccc(S(=O)(=O)n2ccc(/C=C/C(=O)NO)c2)cc1 [Resminostat]	45	5	20.3	2770	4.3	39.6	25.4	3000	–	–	–	–	–	–	–	–	–	–	–	–
O=C(NO)c1cnc(NC2(c3ccccc3)CC2)nc1 [ACY-738]	44.6	–	25.2	–	–	–	–	2460	5	5.2	24.1	46.6	–	–	–	–	–	–	–	2570
CC(C)Oc1ccc(-c2c[nH]cc2CN(C)CCN)cc1 [MS023]	7.3	0	75.6	–	3.9	57.8	80.8	–	–	–	–	–	–	–	–	–	–	–	–	–
Cc1cc(Nc2ccc(NC(=O)c3ccc(Nc4ccnc5ccccc45)cc3)cc2)nc(N)n1 [SGI-1027]	19.4	0	87.3	–	0	2.3	92.3	–	–	–	–	–	–	-0.4	–	-1	–	–	–	–
CCN1CCN(C(=O)Cc2ccc(Nc3ncc(F)c(Nc4ccc(C(=O)Nc5ccccc5Cl)cc4)n3)cc2)CC1 [Aurora A Inhibitor I]	28	–	50	–	–	–	–	–	3	4.6	32	41.2	–	-2.5	–	–	2810	2510	-2.5	–
O=C1CCc2c(ccc3ccccc23)O1 [Splitomicin]	3.1	0	95.1	–	0	7.8	95	–	–	–	–	–	–	–	–	–	–	–	–	–
CC(=O)Nc1ccc(C(=O)Nc2ccc(F)cc2N)cc1 [BRD3308]	12.9	–	91.7	–	–	–	–	–	0	0	86.9	3.9	–	-0.1	–	–	–	–	-1	–
CCN1C(=O)N(c2c(F)c(OC)cc(OC)c2F)Cc2cnc3[nH]c(CN4CCOCC4)cc3c21 [Pemigatinib]	7	0	76.8	–	4.8	62.9	78.8	–	–	–	–	–	–	–	–	–	–	–	–	–
O=C(Nc1ccc(O)c(C(=O)O)c1)c1cccc(NC(=O)c2ccco2)c1 [OSS_128167]	8.4	0	94.6	–	0	7.3	92.5	–	–	–	–	–	–	-0.1	–	-0.3	–	–	–	–
C=CC(=O)N1CC[C@H](n2nc(C#Cc3cc(OC)cc(OC)c3)c3c(N)ncnc32)C1 [TAS-120]	7.2	0	91.3	–	0	1.7	94.4	–	–	–	–	–	–	–	–	–	–	–	–	–
Cc1cc(C)cc(C(=O)NOCCCCCC(=O)NO)c1 [LMK-235]	101.6	–	2	–	–	–	–	–	11.6	9.8	3.5	84.5	–	-1.7	–	–	927	1330	-2.5	–
